Marks after values point to notes of the source that are not given here.
Columns and labels:
Format in all cases: in vivo
[1] = system: Phakopsora pachyrhizi (the causal agent of Asian soybean rust); test: Test A: preventive spray on soybean seedlings, Asian soybean rust, visual disease rating; settings: soybean seedlings
Method in brief: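 Compound in acetone/water (50/50) with 250 ppm PEG400 sprayed to run-off on soybean seedlings; inoculated next day with Phakopsora pachyrhizi spores. Held 24 h at 22° C in saturated atmosphere, then 8 days in a 22° C growth chamber before visual rating as % disease control relative to controls.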

[2] = system: Zymoseptoria tritici (the causal agent of wheat leaf blotch); test: Test B: preventive spray on wheat seedlings, wheat leaf blotch, visual disease rating; settings: test suspension 250 ppm; wheat seedlings
Method in brief: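 This is a preventive test: spray application preceded Zymoseptoria tritici spore inoculation by one day. Test suspensions were in acetone/water with 250 ppm PEG400 surfactant, at the listed ppm rate. After 48 h saturated humidity at 24° C and 17 days at 20° C, visual ratings scored control from 0 to 100%.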

[3] = system: Puccinia recondita f. sp. tritici (the causal agent of wheat leaf rust); test: Test C: preventive spray on wheat seedlings, wheat leaf rust, visual disease rating; settings: wheat seedlings
Method in brief: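 Wheat seedlings sprayed to run-off with compound in acetone/water (50/50) with 250 ppm PEG400, then inoculated with spores the following day. After 24 h saturated humidity at 20° C. and 6 days in growth chamber at 20° C., disease rated visually as % control relative to untreated controls.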

[4] = test suspension 10 ppm, 100 = 100% disease control, 0 = no control

SMILES	Test A disease control rating [1, 4]	Test B disease control rating [2]	Test C disease control rating ([3]; test suspension 10 ppm)	Test A disease control rating ([1]; test suspension 50 ppm)	Test C disease control rating ([3]; test suspension 50 ppm)	Test A disease control rating ([1]; test suspension 250 ppm)	Test C disease control rating ([3]; test suspension 250 ppm)
O=C(NCC1CC1)c1csc(Cc2ccc(-c3noc(C(F)(F)F)n3)cc2)c1 [compound 290]	100%	53* %	100%	–	–	–	–
O=C(NCC(F)(F)F)c1coc(Cc2ccc(-c3noc(C(F)(F)F)n3)cc2)c1 [compound 291]	100%	13* %	97%	–	–	–	–
COCCNC(=O)c1coc(Cc2ccc(-c3noc(C(F)(F)F)n3)cc2)c1 [compound 292]	100%	96* %	85%	–	–	–	–
O=C(NCCn1cccn1)c1coc(Cc2ccc(-c3noc(C(F)(F)F)n3)cc2)c1 [compound 293]	100%	91* %	79%	–	–	–	–
N#CCNC(=O)c1coc(Cc2ccc(-c3noc(C(F)(F)F)n3)cc2)c1 [compound 294]	100%	50* %	79%	–	–	–	–
Cc1nc(COc2ccc(-c3noc(C(F)(F)F)n3)cc2)cs1 [compound 298]	50%	73* %	0%	–	–	–	–
CCOC(=O)c1cnn(Cn2cc(-c3noc(C(F)(F)F)n3)cn2)c1 [compound 305]	–	0* %	–	44%	0%	–	–
CN(C)C(=O)C1=NOC(Cn2cc(-c3noc(C(F)(F)F)n3)cn2)C1 (stereo not drawn) [compound 306]	–	10* %	–	0%	0%	–	–
CCOC(=O)c1cnn(CCn2cc(-c3noc(C(F)(F)F)n3)cn2)c1 [compound 307]	–	0* %	–	0%	0%	–	–
COC(=O)c1ccc(CCn2cc(-c3noc(C(F)(F)F)n3)cn2)cc1 [compound 310]	–	0* %	–	0%	0%	–	–
COC(=O)c1ccc(Cn2cc(-c3noc(C(F)(F)F)n3)cn2)cc1 [compound 311]	–	0* %	–	0%	0%	–	–
COC(=O)c1cc(COc2ccc(-c3noc(C(F)(F)F)n3)cc2)on1 [compound 312]	0%	0* %	0%	–	–	–	–
FC(F)(F)c1nc(-c2ccc(OCc3cn4ccccc4n3)cc2)no1 [compound 313]	77%	14* %	0%	–	–	–	–
CN(C)C(=O)c1cc(COc2ccc(-c3noc(C(F)(F)F)n3)cc2)on1 [compound 314]	99%	86* %	0%	–	–	–	–
CN(C)C(=O)c1coc(Cc2ccc(-c3noc(C(F)(F)F)n3)cc2)n1 [compound 315]	100%	97* %	99%	–	–	–	–
COC(=O)c1ccc(COc2ccc(-c3noc(C(F)(F)F)n3)cc2)s1 [compound 317]	0%	54* %	0%	–	–	–	–
FC(F)(F)c1nc(-c2ccc(OCc3ccon3)cc2)no1 [compound 318]	0%	11* %	0%	–	–	–	–
FC(F)(F)c1nc(-c2ccc(OCc3cn4cccnc4n3)cc2)no1 [compound 319]	97%	33* %	0%	–	–	–	–
FC(F)(F)c1nc(-c2ccc(OCc3nc4ncccc4o3)cc2)no1 [compound 320]	97%	33* %	0%	–	–	–	–

SMILES	Test A disease control rating [1, 4]	Test B disease control rating [2]	Test C disease control rating ([3]; test suspension 10 ppm)	Test A disease control rating ([1]; test suspension 50 ppm)	Test C disease control rating ([3]; test suspension 50 ppm)	Test A disease control rating ([1]; test suspension 250 ppm)	Test C disease control rating ([3]; test suspension 250 ppm)
O=S1(=O)CCCCN1Cc1ccc(-c2noc(C(F)(F)F)n2)cc1 [compound 321]	–	99* %	–	–	–	100%	100%
O=S1(=O)CCCN1Cc1ccc(-c2noc(C(F)(F)F)n2)cc1 [compound 322]	–	95* %	–	–	–	100%	100%
O=S1(=O)CCCCN1Cc1ccc(-c2noc(C(F)(F)F)n2)s1 [compound 323]	–	92* %	–	–	–	100%	100%
O=S1(=O)CCCN1Cc1ccc(-c2noc(C(F)(F)F)n2)s1 [compound 324]	–	80* %	–	–	–	100%	100%
O=C1COCCN1Cc1ccc(-c2noc(C(F)(F)F)n2)s1 [compound 325]	–	36* %	–	–	–	100%	100%
FC(F)(F)c1nc(-c2cnn(CCCn3cc(-c4noc(C(F)(F)F)n4)cn3)c2)no1 [compound 326]	–	1* %	–	–	–	84%	67%
O=C(NCC1CC1)c1coc(Cc2ccc(-c3noc(C(F)(F)F)n3)cc2)n1 [compound 327]	100%	94* %	100%	–	–	–	–
O=C(NCC(F)(F)C(F)(F)F)c1coc(Cc2ccc(-c3noc(C(F)(F)F)n3)cc2)n1 [compound 328]	100%	0* %	100%	–	–	–	–
O=C(NC1CSC1)c1coc(Cc2ccc(-c3noc(C(F)(F)F)n3)cc2)n1 [compound 329]	100%	98* %	98%	–	–	–	–
CC(C)(NC(=O)c1coc(Cc2ccc(-c3noc(C(F)(F)F)n3)cc2)n1)C(F)(F)F [compound 331]	99%	97* %	94%	–	–	–	–
O=C(NC1CCOC1=O)c1coc(Cc2ccc(-c3noc(C(F)(F)F)n3)cc2)n1 (stereo not drawn) [compound 332]	100%	99* %	99%	–	–	–	–
C=CCOC(=O)c1coc(Cc2ccc(-c3noc(C(F)(F)F)n3)cc2)n1 [compound 334]	99%	92* %	86%	–	–	–	–
CC(C)COC(=O)c1coc(Cc2ccc(-c3noc(C(F)(F)F)n3)cc2)n1 [compound 335]	100%	73* %	94%	–	–	–	–
Cc1noc(C)c1COc1ccc(-c2noc(C(F)(F)F)n2)cc1 [compound 338]	99%	10* %	0%	–	–	–	–
O=C(NC1CC1)c1csc(Cc2ccc(-c3noc(C(F)(F)F)n3)cc2)n1 [compound 342]	100%	99* %	100%	–	–	–	–
NC(=O)c1csc(Cc2ccc(-c3noc(C(F)(F)F)n3)cc2)n1 [compound 343]	100%	97* %	100%	–	–	–	–
CCOC(=O)c1csc(Cc2ccc(-c3noc(C(F)(F)F)n3)cc2)n1 [compound 344]	100%	96* %	93%	–	–	–	–
O=C(O)c1csc(Cc2ccc(-c3noc(C(F)(F)F)n3)cc2)n1 [compound 345]	96%	50* %	68%	–	–	–	–
CCOC(=O)c1cnn(Cn2nc(-c3noc(C(F)(F)F)n3)ccc2=O)c1 [compound 346]	0%	0* %	0%	–	–	–	–

From US20240090503A1, “FUNGICIDAL OXADIAZOLES AND THEIR MIXTURES” (FMC CORPORATION, priority 2020, published 2024)
